Source: ChEMBL document CHEMBL1201862, “PubChem BioAssay data set” (2004)
Calls of active or inactive are those of the source. Cut-off read from the data, not from the text of the source: active = IC50 of 10 µM or less and inactive = more.

Columns and labels:
[1] = molecular target: Serine/threonine-protein phosphatase (Homo sapiens, UniProt Q9BPW0); assay: PP5 phosphatase inhibitors, dose response, biochemical, fluorescence (AID 2395)
[2] = molecular target: T1, Insulin-degrading enzyme (Homo sapiens, UniProt P14735); assay: Dose Response: Fluorescence polarization-based cell-based high throughput dose response assay for inhibitors of insulin-degrading enzyme (IDE). [Related pubchem assays: 434962 (Primary screen (IDE inhibitors in singlicate)), 449730 (Counterscreen (Cytotoxicity in triplicate)), 435028 (Confirmation (IDE inhibitors in triplicate)), 434984 (Summary …; format: functional
T1 sequence (P14735 whole entry): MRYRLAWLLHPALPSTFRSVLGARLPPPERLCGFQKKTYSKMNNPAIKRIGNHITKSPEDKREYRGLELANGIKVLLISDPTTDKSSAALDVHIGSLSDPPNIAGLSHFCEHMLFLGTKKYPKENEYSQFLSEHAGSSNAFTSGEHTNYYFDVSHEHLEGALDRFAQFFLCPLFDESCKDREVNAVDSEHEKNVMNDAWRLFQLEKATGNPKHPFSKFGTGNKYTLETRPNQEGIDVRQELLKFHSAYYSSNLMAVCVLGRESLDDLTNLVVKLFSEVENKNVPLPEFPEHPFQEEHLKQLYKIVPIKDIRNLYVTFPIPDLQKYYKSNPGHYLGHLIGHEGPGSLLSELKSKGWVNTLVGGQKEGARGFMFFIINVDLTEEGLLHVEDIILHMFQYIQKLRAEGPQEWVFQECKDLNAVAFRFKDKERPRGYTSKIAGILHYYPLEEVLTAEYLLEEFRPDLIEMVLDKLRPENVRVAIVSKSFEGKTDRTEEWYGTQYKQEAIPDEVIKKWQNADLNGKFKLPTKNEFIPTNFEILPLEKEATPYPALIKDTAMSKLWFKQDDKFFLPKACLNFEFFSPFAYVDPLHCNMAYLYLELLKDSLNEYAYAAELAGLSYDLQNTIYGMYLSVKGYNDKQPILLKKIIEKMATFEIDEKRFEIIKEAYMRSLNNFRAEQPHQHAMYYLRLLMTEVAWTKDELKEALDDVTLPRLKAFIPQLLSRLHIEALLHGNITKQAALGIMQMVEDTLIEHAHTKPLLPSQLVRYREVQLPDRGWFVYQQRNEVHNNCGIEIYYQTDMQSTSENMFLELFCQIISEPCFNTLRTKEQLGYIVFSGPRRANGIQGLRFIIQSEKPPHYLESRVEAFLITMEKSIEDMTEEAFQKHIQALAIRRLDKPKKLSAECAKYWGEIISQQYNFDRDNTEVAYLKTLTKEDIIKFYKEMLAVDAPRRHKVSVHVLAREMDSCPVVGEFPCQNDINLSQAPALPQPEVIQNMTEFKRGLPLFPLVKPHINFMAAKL

Serine/threonine-protein phosphatase, sequence (Q9BPW0 whole entry): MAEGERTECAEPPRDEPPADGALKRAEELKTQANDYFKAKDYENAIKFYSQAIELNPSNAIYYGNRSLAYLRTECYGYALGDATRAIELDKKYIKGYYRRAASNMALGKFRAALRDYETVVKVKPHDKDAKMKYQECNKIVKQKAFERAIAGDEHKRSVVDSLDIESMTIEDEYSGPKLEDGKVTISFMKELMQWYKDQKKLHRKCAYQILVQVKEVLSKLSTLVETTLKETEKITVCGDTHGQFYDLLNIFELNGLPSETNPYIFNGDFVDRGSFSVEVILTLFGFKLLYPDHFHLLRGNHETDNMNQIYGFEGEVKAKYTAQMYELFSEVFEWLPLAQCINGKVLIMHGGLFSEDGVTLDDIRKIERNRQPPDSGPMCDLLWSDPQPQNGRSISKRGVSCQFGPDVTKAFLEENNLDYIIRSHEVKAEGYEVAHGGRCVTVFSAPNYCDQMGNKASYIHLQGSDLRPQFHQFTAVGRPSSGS

IC50 [1]	Compound	IC50 [2]
4.01 µM (active)	COc1ccc(/C=N/Nc2cc(N(C)C)nc(N(C)C)n2)cc1	
	C/C(=N\c1cccc(C)c1)c1sc2ccccc2c1O	22.7 µM (not active)
